According to BindingDB's records for doi:10.1021/jm061344o (Incyte, 2007):

Test: Inhibition of Her2 sheddase activity in BT474 cell line

Row | IC50 [nM] | Structure (SMILES)
1 | 560 | O=C(NO)[C@H]1CCCN[C@@H]1C(=O)N1CC[C@H](c2ccccc2)C1 [(2S,3S)-N-hydroxy-2-((R)-3-phenylpyrrolidine-1-carbonyl)piperidine-3-carboxamide]
2 | 280 | O=C(NO)[C@H]1CC2(CC2)CN[C@@H]1C(=O)N1CCN2c3ccccc3CC2C1 (stereo partly drawn) [(6S,7S)-N-hydroxy-6-(3,4,10,10a-tetrahydropyrazino[1,2-a]indol-2(1H)-ylcarbonyl)-5-azaspiro[2.5]octane-7-carboxamide]
3 | 140 | O=C(NO)[C@H]1CC2(CC2)CN[C@@H]1C(=O)N1CCC(c2ccccc2)CC1 [(6S,7S)-N-hydroxy-6-[(4-phenylpiperidin-1-yl)carbonyl]-5-azaspiro[2.5]octane-7-carboxamide]
